# Test results reported in ChEMBL document CHEMBL5729255, “Compounds and uses thereof” (2022).
# Biological target: T1, Bromodomain-containing protein 9 (Homo sapiens, UniProt Q9H8M2)
# T1 sequence (Q9H8M2 whole entry): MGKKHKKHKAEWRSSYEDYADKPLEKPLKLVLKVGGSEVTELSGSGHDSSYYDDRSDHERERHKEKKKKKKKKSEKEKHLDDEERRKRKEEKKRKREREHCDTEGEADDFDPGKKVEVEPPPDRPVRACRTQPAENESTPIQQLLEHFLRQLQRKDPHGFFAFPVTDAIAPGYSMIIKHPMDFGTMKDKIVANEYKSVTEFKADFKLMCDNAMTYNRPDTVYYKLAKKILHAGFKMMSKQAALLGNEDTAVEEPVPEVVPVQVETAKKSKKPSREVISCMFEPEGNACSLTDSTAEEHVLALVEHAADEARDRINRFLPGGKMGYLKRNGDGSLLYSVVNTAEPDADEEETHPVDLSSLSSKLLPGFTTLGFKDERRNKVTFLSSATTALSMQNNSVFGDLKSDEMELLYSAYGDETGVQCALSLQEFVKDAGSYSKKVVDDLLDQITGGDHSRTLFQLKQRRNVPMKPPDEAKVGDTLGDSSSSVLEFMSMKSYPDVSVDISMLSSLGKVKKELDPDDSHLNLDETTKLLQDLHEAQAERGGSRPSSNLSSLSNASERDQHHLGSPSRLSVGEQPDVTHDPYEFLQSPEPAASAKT
# Test: Bromodomain TR-FRET Competition Binding Assay: A mixture of biotinylated-ligand and SureLight Allophycocyanin-Streptavidin (APC-SA, PerkinElmer AD0201) in 50 mM HEPES (pH 7.4), 50 mM NaCl, 1 mM TCEP (pH 7), 0.01% (v/v) Tween-20, 0.01% (w/v) bovine serum albumin was added to a white 384-well PerkinElmer Proxiplate Plus plate. DMSO or 3-fold serially diluted compounds were then added to the Proxiplate followed by addition of Flag-BRD9. After a 10-minute incubation at room temperature, Eu-W1024 anti-FLAG (PerkinElmer, AD0273) was added. The final reaction miture that contained 3.75 nM biotinylated ligand, 3 nM Flag-BRD9, 7.5 nM SureLight Allophycocyanin-Streptavidin, and 0.2 nM Eu-W1024 anti-FLAG was incubated at room temperature for 90 minutes.
row,SMILES,IC50 [nM]
1,COc1cc(-c2cn(C)c(=O)c3cnccc23)cc(OC)c1CN1CCN(C(=O)CCCCOc2cccc3c2C(=O)N(C2CCC(=O)NC2=O)C3=O)CC1 (stereo not given),< 10
2,COc1cc(-c2cn(C)c(=O)c3cnccc23)cc(OC)c1CN(C)Cc1cn(-c2ccc3c(c2)C(=O)N(C2CCC(=O)NC2=O)C3=O)nn1 (stereo not given),> 10
3,COc1cc(-c2cn(C)c(=O)c3cnccc23)cc(OC)c1CN1CC(S(=O)(=O)NCCCCNc2ccc3c(c2)C(=O)N(C2CCC(=O)NC2=O)C3=O)C1 (stereo not given),< 10

# More lines, now with the values ahead:
row,IC50 [nM],SMILES
1,< 10,COc1cc(-c2cn(C)c(=O)c3cnccc23)cc(OC)c1CN1CC(OCc2cn(CCOc3ccc4c(c3)C(=O)N(C3CCC(=O)NC3=O)C4=O)nn2)C1 (stereo not given)
2,> 10,COc1cc(-c2cn(C)c(=O)c3cnccc23)cc(OC)c1CN1CCCC(OCc2cn(CCCCOc3ccc4c(c3)C(=O)N(C3CCC(=O)NC3=O)C4=O)nn2)C1 (stereo not given)
